Source: article PMC3402633 (2012)

Molecular target: tubulin (αβ-tubulin heterodimer)
Test: competition with [3H]colchicine binding
Set-up: species or system Bos taurus

SMILES: COC(=O)C1=CC[C@@]23CC[C@@H]([C@@](C)(/C=C/C=C(\C)C(=O)O)OC2=O)[C@@]3(OC(C)=O)CC1 [PAB, pseudolaric acid B]
- Ki: 12 to 15 µM
